The subject of data set [1] is BT cells (bovine turbinate cells). Conditions: uninfected BT cells, 3 days; 100 μM maximum concentration tested.
Data set [2] has as its system S. neurona + GFP/FLUC parasites. Nature of the data set: Luciferase-based S. neurona growth inhibition, EC50 determination. Conditions: for EC50: Sarcocystis neurona; for TI (TC50/EC50): ratio of BT cell TC50 to S. neurona EC50.
The test system of a further data set is Cryptosporidium parvum. Conditions: ref Bessoff et al., 2013; cited from earlier work.
The test system of another data set is T. gondii. Conditions: ref Dittmar et al., 2016; Wang et al., 2017; Bowden, unpublished data; cited from earlier work.
For the next data set, the system named is P. falciparum. Conditions: PubChem BioAssay; ref Wang et al., 2017; cited from earlier work.
The conditions of data set [3]: horses, ref DiMaio Knych et al., 2011, cited from earlier work.
The test system of data set [4] is S. neurona + GFP/FLUC parasites. Nature of the data set: microbe, parasite or virus in culture. Conditions: for Effect on S. neurona growth reflected by increases in FLUC activity: 10 μM HTS, not confirmed with secondary screening. In kind it is cell-based, Sarcocystis neurona.
The next data set has as its system S. neurona. Conditions: ref Gargala et al., 2009, cited from earlier work.
Another data set relates to S. neurona parasites. Conditions: ref Lindsay and Dubey, 1999; cited from earlier work.
The mark [5] stands for this setting: 96 h, read-out: EC50 in μM (95% CI).

Where a name gives a salt, the structure may show the parent alone. Read-outs that look alike come from different tables or passages of the source. Marks after values point to notes of the source that are not given here.

Consider `O=C(c1ccc(F)cc1)C1CCN(CCn2c(=S)[nH]c3ccccc3c2=O)CC1` [Altanserin], for which the “TC50 in μM” value in data set [1] is given as >100 ^a μM. Also, the EC50 in data set [2] (setting [5]) is 3.5 µM. Further, the “TI (TC50/EC50)” value in [2] was 29.
In the case of `C[C@H]1[C@H](OC(=O)CCC(=O)O)O[C@@H]2O[C@@]3(C)CC[C@H]4[C@H](C)CC[C@@H]1[C@@]24OO3` [Artesunate], in data set [1], the “TC50” value was greater than 100 µM. In addition, the EC50 in data set [2] (setting [5]) is 3.3 µM. Moreover, the “TI (TC50/EC50)” value in data set [2] is listed as 30.
Turning to `CN1CCCC(n2nc(Cc3ccc(Cl)cc3)c3ccccc3c2=O)CC1` (stereo not drawn) [Azelastine HCl], the “TC50” value in [1] amounted to 28 µM. Besides, in data set [2] (setting [5]), the EC50 came to 2.5 µM. In addition, in data set [2], the “TI (TC50/EC50)” value is on record as 11.
In the case of `CCCCCCNC(=O)n1cc(F)c(=O)[nH]c1=O` [Carmofur], the “TC50” value in [1] is greater than 100 µM. In addition, the “Activity against Cryptosporidium parvum” value in the data set with Cryptosporidium parvum was “active”. In the data set with T. gondii, the “Activity against T. gondii” value is recorded as “active”. Further, in the data set on P. falciparum, the “Activity against P. falciparum” value is listed as “active”. Further, the EC50 in [2] (setting [5]) was 0.73 µM. Further, the “TI (TC50/EC50)” value in data set [2] is recorded as 137.
On to `Oc1c(Cl)cc(Cl)c2cccnc12` [Chloroxine], for which, in data set [1], the “TC50” value was found to be 16 µM. The EC50 in data set [2] (setting [5]) came out at 2.5 µM. Moreover, the “TI (TC50/EC50)” value in [2] is listed as 6.
The like results for `CC(C)/N=c1\cc2n(-c3ccc(Cl)cc3)c3ccccc3nc-2cc1Nc1ccc(Cl)cc1` [Clofazimine] were, in that order, greater than 100 µM, 3.7 µM and 27.
With `O=C1CN(/N=C/c2ccc(-c3ccc([N+](=O)[O-])cc3)o2)C(O)=N1` [Dantrolene], the “TC50” value in data set [1] came to 52 µM. The “Peak plasma concentration” value in data set [3] (500 mg capsules, converted) is given as 85.95 nM; in [3] (500 mg capsules) it was 28.9 ± 21.6 ng/mL; in data set [3] (500 mg paste, converted) it was 112.4 nM; in data set [3] (500 mg paste), 37.8 ± 12.8 ng/mL. Further, in data set [3] (both formulations (capsules and paste)), the “Time of peak plasma concentration after administration” value is recorded as 3.8 h. The EC50 came to 0.065 µM in data set [2] (setting [5]) and 21.9 ng/mL in [2] (read-out: EC50 for S. neurona inhibition in ng/ml). Further, the “TI (TC50/EC50)” value in data set [2] was 800.
Take `O=c1c(-c2ccccc2)c1-c1ccccc1` [Diphenylcyclopropenone]: the “TC50” value in data set [1] worked out at 19 µM. Besides, in data set [2] (setting [5]), the EC50 amounted to 2.5 µM. Further, in data set [2], the “TI (TC50/EC50)” value came to 8.
For the compound `CCN(CC)C(=S)SSC(=S)N(CC)CC` [Disulfiram], the “TC50” value in [1] was 20 µM. Besides, in data set [2] (setting [5]), the EC50 came out at 0.15 µM.
Turning to `O=c1[nH]cc(F)c(=O)[nH]1` [Fluorouracil], in [1], the “TC50” value stood at 78 µM. In the data set on Cryptosporidium parvum, the “Activity against Cryptosporidium parvum” value is “active”. The “Activity against T. gondii” value in the data set on T. gondii is listed as “active”. Further, in the data set on P. falciparum, the “Activity against P. falciparum” value is listed as “active”. Moreover, in [2] (setting [5]), the EC50 was 0.79 µM. The “TI (TC50/EC50)” value in [2] is reported as 99.
As to `Oc1c(Cl)cc(Cl)c(Cl)c1Cc1c(O)c(Cl)cc(Cl)c1Cl` [Hexachlorophene], the “TC50” value in data set [1] was 56 µM. Further, in data set [2] (setting [5]), the EC50 came to 2.8 µM. The “TI (TC50/EC50)” value in data set [2] amounted to 20.
With `Cl.O=C1[C@H]2CCCC[C@H]2C(=O)N1CCCCN1CCN(c2nsc3ccccc23)CC1` [Perospirone HCl], the “TC50” value in data set [1] stood at 86 µM. Besides, in data set [2], the “TI (TC50/EC50)” value is 25.
With `OCCN1CCN(CCCN2c3ccccc3Sc3ccc(Cl)cc32)CC1` [Perphenazine], in [1], the “TC50” value was found to be 14 µM. The EC50 in [2] (setting [5]) came to 3.3 µM. In data set [2], the “TI (TC50/EC50)” value is 4.
For `COc1cc2nc(N3CCN(C(=O)c4ccco4)CC3)nc(N)c2cc1OC` [Prazosin], in [1], the “TC50” value is 45 µM. Further, the EC50 in [2] (setting [5]) was determined as 6 µM. The “TI (TC50/EC50)” value in [2] came out at 8.
The like results for `COc1cc(NC(C)CCCN)c2ncccc2c1` (stereo not drawn) [Primaquine phosphate] were, in that order, 47 µM, 2.2 µM and 21.
Consider `CCc1nc(N)nc(N)c1-c1ccc(Cl)cc1` [Pyrimethamine], for which the “TC50” value in data set [1] was greater than 100 µM. Besides, the “FLUC activity of treated parasites” value in [2] (10 μM, measured every 2 days over 10-day incubation) is on record as “severely diminished FLUC activity”. For the same compound, the EC50 was 3.9 µM in [2] (setting [5]) and 3.22 µM in [2] (read-out: EC50 of pyrimethamine (HTS validation, Fig. 2B)). In addition, in data set [2], the “TI (TC50/EC50)” value amounted to 26.
As for `CN1CCN(CC/C=C2/c3ccccc3Sc3ccc(S(=O)(=O)N(C)C)cc32)CC1` [Thiothixene], the “TC50” value in data set [1] is 30 µM. The EC50 in data set [2] (setting [5]) amounted to 6.3 µM. Besides, the “TI (TC50/EC50)” value in data set [2] is reported as 5.
On to `CCCSc1ccc2nc(NC(=O)OC)[nH]c2c1` [albendazole], for which the “Effect on S. neurona growth reflected by increases in FLUC activity” value (shortened to “Effect … by increases in FLUC activity”) in data set [4] was “growth-enhancing”.
In the case of `CC(=O)Oc1ccccc1C(=O)Nc1ncc([N+](=O)[O-])s1` [nitazoxanide], the “Reported mean 90% inhibitory activity against S. neurona, in μM” value in the data set on S. neurona (approximate conversion) is “approximately 6.2 μM”. The “Reported mean 90% inhibitory activity against S. neurona” value with S. neurona is on record as 1.9 mg/L. Also, the EC50 in [2] (setting [5]) was roughly 12 µM.
As for `c1ccc2[nH]c(-c3cscn3)nc2c1` [thibendazole], in data set [4], the “Effect … by increases in FLUC activity” value is “growth-enhancing”.
Regarding `COc1cc(Cc2cnc(N)nc2N)cc(OC)c1OC` [trimethoprim], the inhibition – broadly, the share of the control response that was lost under treatment – at 10 µM in [4] (Sarcocystis neurona, read-out: % inhibition of parasite growth in HTS) was no more than 80%. Also, the “Reported EC50 for S. neurona parasites in vitro” value in the data set with S. neurona parasites was 2.5 µg/mL. For the same compound, the EC50 in data set [2] (setting [5]) was roughly 19 µM.
Take `Cc1ccc(-c2nc3ccc(C)cn3c2CC(=O)N(C)C)cc1` [zolpidem tartrate]: the “Effect … by increases in FLUC activity” value in data set [4] was “growth-enhancing”.

Values taken from article PMC6114104 (International Journal for Parasitology: Drugs and Drug …, 2018).
